# Assay results as given in patent publication US10385372B2, “Methods for thaxtomin production and modified streptomyces with increased thaxtomin production” (priority 2014, dated 2019).
# Columns and labels:
# [1] = system: S. scabies 87-22 and ΔcebR; experiment: Thaxtomin production on ISP-4 plates with and without cellobiose supply (HPLC); type: cell-based, Streptomyces scabies; conditions: ISP-4 medium; wild-type or ΔcebR background; FIGS. 8A and 8B
# Source text: FIGS. 8A-B illustrate genetic complementation of the cebR mutant scored by thaxtomin production on ISP-4 plates. […] Although pigmentation is not visible in the black and white photos, FIG. 8B is a graphic illustration HPLC analysis of thaxtomin production on the ISP-4 plates from FIG. 8A. […] Thaxtomin production is reverted back to wild-type levels when the mutation is genetically complemented (cebR mutant transformed with pRLIF8 containing the cebR gene and its promoter region).
# The production of thaxtomin by both strains grown on ISP-4 with and without cellobiose supply was compared. […] The further increase in toxin production by the mutant upon addition of cellobiose is most likely due to the function of cellobiose as ligand of the transcriptional activator TxtR, which drives the expression of the thaxtomin biosynthetic genes txtA and txtB (Joshi et al. 2007) (FIG. 5).
# Mycelial suspensions of S. scabies strains were prepared from 48-72 h-old TSB-grown cultures by pelleting the mycelia, washing twice with sterile water, and resuspending in 1 ml sterile water to obtain an optical density at 600 nm (OD600 mn) of 1.0. […] Thaxtomin A was purified from the supernatant and analyzed by HPLC as described previously (Johnson et al. 2007). […]
# [2] = system: S. scabies CebR regulator (CebR-His6); experiment: Electromobility gel shift assay (EMSA) with CebR-His6 pre-incubated with cellobiose and cellooligosaccharides; type: binding, Streptomyces scabies; conditions: EMSA of FIG. 4; for impairment of the CebR DNA-binding ability (quantification of shifted bands): CebR-His6 pre-incubated with oligosaccharide, Cy5-labelled cbs probes 6 nM
# Procedure: Numbers 1 and 2 refer to EMSAs with free probes (6 nM) and with probes incubated with CebR-His6, respectively. Numbers 3 to 7 refer to EMSAs with CebR-His6 pre-incubated with oligosaccharides, i.e. cellobiose (3), cellotriose (4), cellotetraose (5), cellopentaose (6), and cellohexaose (7). Note that cellobiose (3) is the best oligosaccharide for preventing CebR interaction with all CebR-binding sites.
# Electromobility gel shift assays (EMSAs) were performed in order to assess binding of the S. scabies CebR regulator (CebR^sca) to the in silico predicted cbs. The scab57761 gene was cloned into pET-22b and overexpressed in Escherichia coli Rosetta (DE3) cells. The resulting recombinant His-tagged CebR (CebR-His6) was purified from the IPTG-induced E. coli cytoplasmic extracts by Nickel-NTA affinity column. […] Under the same conditions, strong CebR-binding to cbs^cebE-R and cbs^bglC, which were used as positive controls of genes known to be directly controlled by CebR (Schlösser 2000; Marushima 2009), was observed (FIG. 3).
# Experimental in vitro validations of predicted cis-acting elements allowed proposing a signaling pathway from cellobiose sensing and transport to thaxtomin biosynthesis (FIG. 5). […] Once inside the cell, cellobiose (and to a lesser extent cellotriose) prevents CebR-binding to cbs^txtR-A and cbs^txtB allowing expression of txtA, txtB and txtR. Consequently, TxtR complexed to cellobiose would be able to increase the expression levels of txtA and txtB, the thaxtomin biosynthetic genes.
# EMSAs with 34-bp double-stranded probes (generated by PCR, Table 2) were performed using Cy5-labeled cbs probes (6 nM and 30 nM final concentration) and His6-tagged CebR at a final concentration between 0.08 and 3.2 μM in a total reaction volume of 50 μl. All reactions were carried out in EMSA buffer (10 mM Tris-HCl, pH 7.5, 1 mM dithiothreitol [DTT], 0.25 mM CaCl2, 0.5 mM MgCl2, 50 mM KCl, and 2% glycerol) containing excess of nonspecific DNA (salmon sperm DNA). After 15 min of incubation at room temperature, reaction mixtures were loaded onto a 1% (wt/vol) agarose gel. Bound and unbound probes were separated by gel electrophoresis for 30 min at 100 V at room temperature, and fluorescent DNA was visualized using a Typhoon Trio+ variable-mode imager (FRFC 2.4506.08).
smiles,measurement,setting,value
O=C[C@H](O)[C@@H](O)[C@H](O[C@@H]1O[C@H](CO)[C@@H](O)[C@H](O)[C@H]1O)[C@H](O)CO [cellobiose],effect of addition on thaxtomin production,[1],significant increase
same,impairment of the CebR DNA-binding ability (quantification of shifted bands),[2],56%
same,allosteric effector inhibiting CebR from binding to its DNA targets,[2]; compared with cellotriose to cellohexaose,best allosteric effector
OC[C@H]1O[C@@H](O[C@H]2[C@H](O)[C@@H](O)[C@H](O[C@H]3[C@H](O)[C@@H](O)[C@H](O[C@H]4[C@H](O)[C@@H](O)[C@H](O[C@H]5[C@H](O)[C@@H](O)[C@H](O[C@H]6[C@H](O)[C@@H](O)C(O)O[C@@H]6CO)O[C@@H]5CO)O[C@@H]4CO)O[C@@H]3CO)O[C@@H]2CO)[C@H](O)[C@@H](O)[C@@H]1O (some centres unmarked) [cellohexaose],impairment of the CebR DNA-binding ability (quantification of shifted bands),[2],12%
OC[C@H]1O[C@@H](O[C@H]2[C@H](O)[C@@H](O)[C@H](O[C@H]3[C@H](O)[C@@H](O)C(O)O[C@@H]3CO)O[C@@H]2CO)[C@H](O)[C@@H](O)[C@@H]1O (some centres unmarked) [cellotriose],impairment of the CebR DNA-binding ability (quantification of shifted bands),[2],20%
